The structures appear in SMILES notation. Bounds are passed on as bounds.

The test system of assay [1] is H1975 (EGFR L858R/T790M double mutation). Put plainly: Cell antiproliferative assay (CTG, 72 h), H1975. The format is cell-based, human. The settings on record: Table 2, H1975 cells. The gist of the method:
(§1)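 Cells seeded at 1500-2500 per well, compounds added about 24 h later as a 1:4 gradient from 10,000 nM top concentration in triplicate. After 72 h, viability read by CellTiter-Glo luminescence relative to 0.1% DMSO and blank-medium controls; IC50 from curve fitting.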

Assay [2] relates to PC-9 (EGFR exon 19 deletion). Put plainly: Cell antiproliferative assay (CTG, 72 h), PC-9. The format is cell-based, human. Particulars: Table 2, PC-9 cells. The gist of the method:
as §1

The test system of assay [3] is HCC827 (exon 19 deletion mutation). Put plainly: Cell antiproliferative assay (CTG, 72 h), HCC827. The format is cell-based, human. Particulars: Table 2, HCC827 cells. The gist of the method:
as §1

The next assay addresses T1, EGFR (Homo sapiens, UniProt P00533, DEL746-750).
T1 construct: host or cells: HCC827
Put plainly: EGFR PROTAC In Cell Western assay in HCC827. Type of assay: cell-based. Particulars: HCC827, EGFR degradation, 16 hours of incubation; for Dmax: HCC827, Table 4. From the text: Test Example 2 EGFR PROTAC in Cell Western Assay
HCC827 cell culture medium was purchased from Corning. Cell line HCC827 was purchased from BeNa Culture Collection; EGF Receptor (D38B1) XP Rabbit mAb antibody and β-Actin (8H10D10) Mouse mAb antibody were from CST. IRDye 800CW, IRDye 680RD, and Intercept blocking solution (PBS) were purchased from Licor. Triton-100 was purchased from sigma, and 96-well black cell culture imaging microtiter plates were purchased from Agilent.
1) HCC827 cells were cell counted and cells were inoculated into 96-well black cell culture imaging microtiter plates at a density of 40,000 cells per well, with 100 μl per well. The plate was incubated overnight in a CO2 incubator.
2) Day 1: A gradient dilution of the compound to be tested was added to the cells of the culture plate (with a starting concentration of […], 9 concentrations, a dilution ratio of 1:3, 2 duplicate wells), with a final concentration of DMSO being 0.5%, and a blank control of DMSO without compound. The plate was placed in the cell culture incubator for a final 16 hours of incubation.
3) The culture medium was removed from the 96 wells with a pipette and the residual medium was washed with […] of PBS per well on a shaker for 5 min. After the removal of PBS, cells were quickly fixed by adding 150 μl of fresh fixation buffer (3.7% paraformaldehyde) and incubated for 20 min at room temperature.
4) The fixation buffer was removed and […] of Triton elution buffer (0.3% Triton-100) was added to wash for four times on a shaker for 5 minutes each time.
5)[…] LI-COR Odyssey blocking solution was added and the cells were incubated for 1.5 hours at room temperature with slow shaking on a shaker.
6) To block the samples, a primary antibody against EGFR and Actin were prepared using Antibody Dilution Buffer at a ratio of 1:300. The blocking solution was poured out and the diluted primary antibody was added (at a total volume of 50 μl/per well). The cell plate was covered and incubated at 4° C. overnight.
7) The cell plate was washed four times with PBS+Triton X-100 for 5 minutes each time.
8) Fluorescently labeled secondary antibodies IRDye® 680RD and IRDye® 800CW were diluted with Antibody Dilution Buffer (with a ratio of 1:600, at a total volume of 50 μl/well) and then incubated for one hour at room temperature, protected from light.
9) The cell plate was washed four times with PBS+Triton X-100 for 5 minutes each time.
After pipetting the PBS thoroughly, the plate was inverted and imaged on a Burroughs imager. A multiple exposure program was selected, IRDye 680RD Blot was chosen for the first channel, and IRDye 800CW Blot was chosen for the second channel. […] The blank group was the DMSO group, EGFR/Actin was calculated as the EGFR value of the corresponding sample wells, and the degradation rate=100-100*EGFR signal/DMSO signal. The DC50 and Dmax of the degraded EGFR proteins were calculated by fitting curves using the Prism software, 3-parameter method.

T1 sequence (P00533 with tags, fused parts or gaps DEL746-750): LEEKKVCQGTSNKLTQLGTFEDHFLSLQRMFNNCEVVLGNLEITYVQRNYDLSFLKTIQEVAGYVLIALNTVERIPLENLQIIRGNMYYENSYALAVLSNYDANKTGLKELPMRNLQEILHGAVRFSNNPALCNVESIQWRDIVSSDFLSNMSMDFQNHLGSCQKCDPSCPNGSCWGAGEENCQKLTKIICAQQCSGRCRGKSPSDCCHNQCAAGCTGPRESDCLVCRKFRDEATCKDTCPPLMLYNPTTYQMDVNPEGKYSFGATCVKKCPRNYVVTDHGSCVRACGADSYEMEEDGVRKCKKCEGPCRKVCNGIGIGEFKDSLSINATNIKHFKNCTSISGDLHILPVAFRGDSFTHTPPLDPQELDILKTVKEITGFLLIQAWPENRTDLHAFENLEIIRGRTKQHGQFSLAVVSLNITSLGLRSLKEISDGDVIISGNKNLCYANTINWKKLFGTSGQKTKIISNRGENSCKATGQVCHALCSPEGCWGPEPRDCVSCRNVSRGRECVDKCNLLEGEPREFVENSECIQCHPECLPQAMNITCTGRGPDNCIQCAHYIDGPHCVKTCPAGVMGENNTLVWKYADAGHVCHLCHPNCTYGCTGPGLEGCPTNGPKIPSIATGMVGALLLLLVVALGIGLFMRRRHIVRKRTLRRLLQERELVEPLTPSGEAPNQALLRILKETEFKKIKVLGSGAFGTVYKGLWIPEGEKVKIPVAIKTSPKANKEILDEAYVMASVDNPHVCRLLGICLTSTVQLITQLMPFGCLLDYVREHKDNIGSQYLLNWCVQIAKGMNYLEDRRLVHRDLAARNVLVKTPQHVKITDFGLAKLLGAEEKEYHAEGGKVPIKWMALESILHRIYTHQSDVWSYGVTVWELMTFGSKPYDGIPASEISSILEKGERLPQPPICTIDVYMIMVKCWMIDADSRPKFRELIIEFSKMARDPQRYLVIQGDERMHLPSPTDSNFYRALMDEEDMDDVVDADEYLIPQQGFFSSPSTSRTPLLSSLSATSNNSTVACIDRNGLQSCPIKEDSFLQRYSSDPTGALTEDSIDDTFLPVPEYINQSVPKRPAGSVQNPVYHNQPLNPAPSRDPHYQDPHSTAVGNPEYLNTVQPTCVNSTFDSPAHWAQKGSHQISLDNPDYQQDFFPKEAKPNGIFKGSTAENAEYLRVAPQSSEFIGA

The term IC50 denotes the concentration needed to halve the response being measured. High values mean a need for much substance, low ones inhibition by little substance. The term Dmax denotes the greatest extent of degradation seen. In general, DC50 refers to the concentration at which degradation of the target reaches its halfway point. High values mean a less potent degrader, low ones a more potent degrader. `COc1cc(N2C3CCC2CN(C(=O)CN2CCC(c4ccc(NC5CCC(=O)NC5=O)cc4)CC2)C3)ccc1Nc1ncc(Cl)c(Nc2ccccc2C(C)=O)n1` (stereo not drawn) [Compound T-191]: the IC50 was in the range of 10 to 100 nM in assay [1] (Homo sapiens, NCI-H1975, 72 h); 100 to 1000 nM in assay [2] (Homo sapiens, PC-9, 72 h); 100 to 1000 nM in assay [3] (Homo sapiens, HCC827, 72 h). The compound also came in with a Dmax at EGFR of 50 to 70%. At EGFR (Table 4), the DC50 was in the range of 0.1 to 1 µM.
`COc1cc(N2CCN(C(=O)CN3CCC(c4ccc(NC5CCC(=O)NC5=O)cc4)CC3)CC2)ccc1Nc1ncc(Cl)c(Nc2ccccc2C(=O)N(C)C)n1` (stereo not drawn) [Compound T-198]: the IC50 was no more than 10 nM in assay [1] (Homo sapiens, NCI-H1975, 72 h); 100 to 1000 nM in assay [2] (Homo sapiens, PC-9, 72 h); 100 to 1000 nM in assay [3] (Homo sapiens, HCC827, 72 h). The compound also showed a Dmax on EGFR of 50 to 70%. The compound also displayed a DC50 on EGFR (Table 4) of no more than 0.01 µM.
For `COc1nc(N2CCN(C(=O)CN3CCC(c4ccc(NC5CCC(=O)NC5=O)cc4)CC3)CC2)ccc1Nc1ncc(Cl)c(Nc2ccccc2P(C)(C)=O)n1` (stereo not drawn) [Compound T-203], the IC50 in assay [1] (Homo sapiens, NCI-H1975, 72 h) was in the range of 10 to 100 nM; in assay [2] (Homo sapiens, PC-9, 72 h), 100 to 1000 nM; in assay [3] (Homo sapiens, HCC827, 72 h), 10 to 100 nM. Moreover, the Dmax on EGFR lay in the range of 50 to 70%. The compound also yielded a DC50 at EGFR (Table 4) of 0.01 to 0.1 µM.
As to `COc1cc(N2CCC(N3CCN(C(=O)CN4CCC(c5ccc(NC6CCC(=O)NC6=O)cc5)CC4)CC3)CC2)ccc1Nc1ncc(Cl)c(Nc2ccccc2N(C)S(C)(=O)=O)n1` (stereo not drawn) [Compound T-211], the IC50 in assay [1] (Homo sapiens, NCI-H1975, 72 h) was 10 to 100 nM; in assay [2] (Homo sapiens, PC-9, 72 h), 100 to 1000 nM; in assay [3] (Homo sapiens, HCC827, 72 h), 10 to 100 nM. On EGFR, this compound yielded a Dmax of 50 to 70%. For the same compound, on EGFR (Table 4), the DC50 fell in the range of 0.01 to 0.1 µM.
`COc1cc(N2CCC(N3CCN(C(=O)CCCCN4CCC(c5ccc(NC6CCC(=O)NC6=O)cc5)CC4)CC3)CC2)ccc1Nc1ncc(Cl)c(Nc2ccccc2N(C)S(C)(=O)=O)n1` (stereo not drawn) [Compound T-220]: the IC50 was in the range of 10 to 100 nM in assay [1] (Homo sapiens, NCI-H1975, 72 h); 100 to 1000 nM in assay [2] (Homo sapiens, PC-9, 72 h); 100 to 1000 nM in assay [3] (Homo sapiens, HCC827, 72 h). Moreover, the Dmax at EGFR is less than 50%. At EGFR (Table 4), this compound gave a DC50 of 0.01 to 0.1 µM.
Turning to `COc1cc(N2CCC(N3CCN(C(=O)CCCCN4CCN(c5ccc6c(c5)C(=O)N(C5CCC(=O)NC5=O)C6=O)CC4)CC3)CC2)ccc1Nc1ncc(Cl)c(Nc2ccccc2C(C)=O)n1` (stereo not drawn) [Compound T-221], the IC50 in assay [1] (Homo sapiens, NCI-H1975, 72 h) was 100 to 1000 nM; in assay [2] (Homo sapiens, PC-9, 72 h) it was no less than 1000 nM; in assay [3] (Homo sapiens, HCC827, 72 h), no less than 1000 nM. For the same compound, the Dmax on EGFR is less than 50%. In addition, at EGFR (Table 4), the DC50 is 0.1 to 1 µM.
Consider `COc1cc(N2CCC(N(C)C(=O)CN3CCC(c4ccc(NC5CCC(=O)NC5=O)cc4)CC3)CC2)ccc1Nc1ncc(C(F)(F)F)c(Nc2ccccc2C(C)=O)n1` (stereo not drawn) [Compound T-224], for which the figures for the IC50 in assay [1], in assay [2] and in assay [3] were 10 to 100 nM, 100 to 1000 nM and 100 to 1000 nM, respectively. Besides, the DC50 on EGFR (Table 4) is 0.01 to 0.1 µM. Further, on EGFR (Table 4), the “Dmax(%)” value is “C (C<50%)”.
For `COc1cc(N2CCN(C(=O)CN3CCC(c4ccc(NC5CCC(=O)NC5=O)cc4)CC3)CC2)ccc1Nc1ncc(Cl)c(Nc2ccccc2N(C)S(C)(=O)=O)n1` (stereo not drawn) [Compound T-227], the IC50 in assay [1] (Homo sapiens, NCI-H1975, 72 h) is no more than 10 nM; in assay [2] (Homo sapiens, PC-9, 72 h), 10 to 100 nM; in assay [3] (Homo sapiens, HCC827, 72 h) it was 10 to 100 nM. The same compound yielded a Dmax at EGFR of 50 to 70%. This compound had a 50% degradation concentration (DC50) on EGFR (Table 4) of 0.01 to 0.1 µM.
For the compound `COc1cc(N2CCN(C(=O)CN3CCC(c4ccc(NC5CCC(=O)NC5=O)cc4)CC3)CC2)c(-c2cnn(C)c2)cc1Nc1ncc(Cl)c(Nc2ccccc2C(C)=O)n1` (stereo not drawn) [Compound T-233], the IC50 is 10 to 100 nM in assay [1] (Homo sapiens, NCI-H1975, 72 h); 100 to 1000 nM in assay [2] (Homo sapiens, PC-9, 72 h); 10 to 100 nM in assay [3] (Homo sapiens, HCC827, 72 h). The same compound yielded a Dmax at EGFR of 50 to 70%. Also, the DC50 at EGFR (Table 4) was in the range of 0.01 to 0.1 µM.
With `COc1cc(N2CCN(C(=O)CN3CCC(c4ccc(NC5CCC(=O)NC5=O)cc4)CC3)CC2)ncc1Nc1ncc(C(F)(F)F)c(Nc2ccccc2C(C)=O)n1` (stereo not drawn) [Compound T-246], the IC50 in assay [1] (Homo sapiens, NCI-H1975, 72 h) is no more than 10 nM; in assay [2] (Homo sapiens, PC-9, 72 h), 10 to 100 nM; in assay [3] (Homo sapiens, HCC827, 72 h) it was 10 to 100 nM. The compound also gave a Dmax on EGFR of 70 to 100%. Moreover, the DC50 on EGFR (Table 4) is no more than 0.01 µM.
With `CNC(=O)c1ccccc1Nc1nc(Nc2cc(C)c(N3CCN(C(=O)CN4CCC(c5ccc(NC6CCC(=O)NC6=O)cc5)CC4)CC3)cc2OC)ncc1Cl` (stereo not drawn) [Compound T-254], the IC50 in assay [1] (Homo sapiens, NCI-H1975, 72 h) is no more than 10 nM; in assay [2] (Homo sapiens, PC-9, 72 h), 10 to 100 nM; in assay [3] (Homo sapiens, HCC827, 72 h) it was 10 to 100 nM. This compound had a maximal degradation (Dmax) on EGFR of 70 to 100%. The DC50 at EGFR (Table 4) lay within 0.01 to 0.1 µM.
With `CC(=O)c1ccccc1Nc1nc(Nc2ccc(N3CCN(C(=O)CN4CCC(c5ccc(NC6CCC(=O)NC6=O)cc5)CC4)CC3)cc2Cl)ncc1Cl` (stereo not drawn) [Compound T-333], the half-maximal inhibitory concentration (IC50) in assay [1] (Homo sapiens, NCI-H1975, 72 h) lay within 100 to 1000 nM; in assay [2] (Homo sapiens, PC-9, 72 h), 100 to 1000 nM; in assay [3] (Homo sapiens, HCC827, 72 h), 100 to 1000 nM. In addition, the Dmax at EGFR is less than 50%. Moreover, at EGFR (Table 4), the DC50 lay in the range of 0.01 to 0.1 µM.
Regarding `COc1cc(C2CCN(C(=O)CN3CCC(c4ccc(NC5CCC(=O)NC5=O)cc4)CC3)CC2)ccc1Nc1ncc(Cl)c(Nc2ccccc2C(C)=O)n1` (stereo not drawn) [Compound T-334], the IC50 in assay [1] (Homo sapiens, NCI-H1975, 72 h) lay within 100 to 1000 nM; in assay [2] (Homo sapiens, PC-9, 72 h), 100 to 1000 nM; in assay [3] (Homo sapiens, HCC827, 72 h), 100 to 1000 nM. For the same compound, the Dmax at EGFR was less than 50%. The compound also yielded a DC50 on EGFR (Table 4) of 0.1 to 1 µM.
On to `C=CC(=O)Nc1cc(Nc2ncc(Cl)c(Nc3ccccc3)n2)c(OC)cc1N1CCN(C(=O)CN2CCC(c3ccc(NC4CCC(=O)NC4=O)cc3)CC2)CC1` (stereo not drawn) [Compound T-335], for which the IC50 lay within 100 to 1000 nM in assay [1] (Homo sapiens, NCI-H1975, 72 h); 100 to 1000 nM in assay [2] (Homo sapiens, PC-9, 72 h); 100 to 1000 nM in assay [3] (Homo sapiens, HCC827, 72 h). The compound further had a Dmax at EGFR of 50 to 70%. Also, the DC50 at EGFR (Table 4) lay in the range of 0.1 to 1 µM.
As for `COc1cc(N2CCC(NC(=O)CN3CCC(c4ccc(NC5CCC(=O)NC5=O)cc4)CC3)CC2)ccc1Nc1ncc(Cl)c(Nc2ccccc2C(C)=O)n1` (stereo not drawn) [Compound T-336], the IC50 lay in the range of 100 to 1000 nM in assay [1] (Homo sapiens, NCI-H1975, 72 h); 100 to 1000 nM in assay [2] (Homo sapiens, PC-9, 72 h); 100 to 1000 nM in assay [3] (Homo sapiens, HCC827, 72 h). The same compound gave a Dmax on EGFR of less than 50%. Besides, the DC50 at EGFR (Table 4) was 0.01 to 0.1 µM.

For the origin of these results see patent US20250129086A1, “COMPOUND FOR DEGRADING EGFR PROTEIN AND USE THEREOF” (TYK MEDICINES, INC., priority 2021, published 2025).
